From PubChem BioAssay (NCI)
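Dose response: 5 concentrations. Exposure: 48 h. Format: 96-well plates. Endpoint: linear interpolation; highest concentration if not reached. At the TGI there is no net growth.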

Legend:
Test in all cases: NCI anticancer screen, dose series, 48 h
A549 NSCLC = tested on: A549 NSCLC
EKVX NSCLC = tested on: EKVX NSCLC
HCC-2998 colon = tested on: HCC-2998 colon
HCT-116 colon = tested on: HCT-116 colon
HCT-15 colon = tested on: HCT-15 colon
HL-60(TB) leukemia = tested on: HL-60(TB) leukemia
HOP-62 NSCLC = tested on: HOP-62 NSCLC
HOP-92 NSCLC = tested on: HOP-92 NSCLC
M14 melanoma = tested on: M14 melanoma
NCI-H226 lung = tested on: NCI-H226 lung
SK-MEL-2 melanoma = tested on: SK-MEL-2 melanoma
SW-620 colon = tested on: SW-620 colon
TK-10 renal = tested on: TK-10 renal
UACC-62 melanoma = tested on: UACC-62 melanoma
SF-539 CNS = tested on: SF-539 CNS
NCI-H522 lung = tested on: NCI-H522 lung

| SMILES | TGI (A549 NSCLC) [µM] | TGI (EKVX NSCLC) [µM] | TGI (HCC-2998 colon) [µM] | TGI (HCT-116 colon) [µM] | TGI (HCT-15 colon) [µM] | TGI (HL-60(TB) leukemia) [µM] | TGI (HOP-62 NSCLC) [µM] | TGI (HOP-92 NSCLC) [µM] | TGI (M14 melanoma) [µM] | TGI (NCI-H226 lung) [µM] | TGI (SK-MEL-2 melanoma) [µM] | TGI (SW-620 colon) [µM] | TGI (TK-10 renal) [µM] | TGI (UACC-62 melanoma) [µM] | TGI (SF-539 CNS) [µM] | TGI (NCI-H522 lung) [µM] |
| --- | --- | --- | --- | --- | --- | --- | --- | --- | --- | --- | --- | --- | --- | --- | --- | --- |
| O=C(C1=CCC2(CC1)OCCO2)N(Cc1ccccc1)c1ccccc1I | > 100 | 31.5 | 32.8 | 37.7 | 57.2 | > 100 | 43.3 | 43.2 | 33.5 | 34.8 | 38.7 | > 100 | 44.5 | 31.1 | – | – |
| CCOC(=O)c1c2ccccc2n2c(=O)n(C)nnc12 | > 100 | > 100 | > 100 | > 100 | > 100 | > 100 | > 100 | > 100 | > 100 | > 100 | > 100 | > 100 | > 100 | > 100 | > 100 | – |
| O=[N+]([O-])/C(Cl)=C(\Sc1ccccc1)C(Cl)=C(Cl)Cl | 1.53 | 3.9 | 3.84 | 0.278 | 1.5 | 0.515 | 3.68 | 3.4 | 0.345 | 4.47 | – | – | 3.21 | 1.98 | 2.98 | 0.802 |
| O=C(CN1CCOCC1)NC1=Nc2ncccc2C(=O)NN1 | > 10 | > 10 | – | > 10 | > 10 | > 10 | > 10 | > 10 | > 10 | > 10 | > 10 | > 10 | > 10 | > 10 | > 10 | – |
| c1csc(-c2cc(-c3ccsc3)c(-c3cccs3)s2)c1 | > 100 | > 100 | > 100 | > 100 | > 100 | – | > 100 | > 100 | > 100 | > 100 | – | > 100 | > 100 | > 100 | > 100 | > 100 |
| O=C1CC(CC(O)C(O)CO)CC(=O)N1 (stereo unspecified) | > 100 | > 100 | > 100 | > 100 | > 100 | > 100 | > 100 | > 100 | > 100 | > 100 | – | > 100 | > 100 | – | > 100 | > 100 |
| O=c1oc2ccccc2c(O)c1C(c1ccc([N+](=O)[O-])cc1)c1c(O)c2ccccc2oc1=O | – | > 100 | – | > 100 | > 100 | > 100 | > 100 | > 100 | – | > 100 | > 100 | > 100 | > 100 | > 100 | – | > 100 |
| c1ccc(SCCP(CCP(c2ccccc2)c2ccccc2)c2ccccc2)cc1 (stereo unspecified) | > 100 | > 67.5 | > 100 | > 24.3 | > 100 | > 22.2 | > 100 | 15.1 | 43.5 | > 87.6 | 7.52 | > 100 | > 100 | – | > 100 | – |
